Experimental data published in ChEMBL document CHEMBL1150448, “Dihydropyridines: a new class of angiotensin II antagonists” (Bioorg Med Chem Lett, 1994).

Legend:
[1] = biological target: T1, Angiotensin II receptor (AT-1) type-1 (Rattus norvegicus, UniProt P29089+P25095); experiment: Binding affinity to Angiotensin II receptor, type 1 as displacement of 125I-Sar, Ile-AII from rat adrenal cortex membranes; type: cell membranes, Membrane
T1 sequence (P29089 whole entry): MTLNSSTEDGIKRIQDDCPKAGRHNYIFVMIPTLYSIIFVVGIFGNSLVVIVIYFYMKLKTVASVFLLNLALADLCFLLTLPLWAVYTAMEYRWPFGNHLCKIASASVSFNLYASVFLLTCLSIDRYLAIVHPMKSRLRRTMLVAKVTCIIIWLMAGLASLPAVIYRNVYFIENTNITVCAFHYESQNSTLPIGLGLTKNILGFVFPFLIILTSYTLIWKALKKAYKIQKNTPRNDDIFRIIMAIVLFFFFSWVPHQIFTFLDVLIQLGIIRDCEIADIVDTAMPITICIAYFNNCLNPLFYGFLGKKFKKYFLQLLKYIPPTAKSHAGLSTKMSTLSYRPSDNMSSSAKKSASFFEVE
T1 sequence (P25095 whole entry): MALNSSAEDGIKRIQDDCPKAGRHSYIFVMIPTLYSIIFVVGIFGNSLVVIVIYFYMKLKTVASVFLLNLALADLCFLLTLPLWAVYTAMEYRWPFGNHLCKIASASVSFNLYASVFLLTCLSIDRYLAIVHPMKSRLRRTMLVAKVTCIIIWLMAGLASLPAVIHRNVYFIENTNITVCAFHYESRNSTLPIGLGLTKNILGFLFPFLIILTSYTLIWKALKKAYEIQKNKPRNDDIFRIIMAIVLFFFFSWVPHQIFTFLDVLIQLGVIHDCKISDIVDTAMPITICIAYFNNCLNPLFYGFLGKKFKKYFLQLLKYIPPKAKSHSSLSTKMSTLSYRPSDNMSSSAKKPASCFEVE

[2] = Compound was evaluated for inhibitory activity against PAF (platelet activating factor) induced platelet aggregation; type: functional
[3] = Calcium channel blocking activity (CCB); type: functional
Rattus norvegicus = experiment: Dose required to produce 30 […] decrease in blood pressure that lasted for >6 hr.; type: functional

| IC50 [1] [nM] | IC50 [2] [nM] | IC50 [3] [nM] | Structure (SMILES) | Dose (Rattus norvegicus) [mg/kg] |
| --- | --- | --- | --- | --- |
| 60 | > 100000 | 360 | CCCCc1nc2cccnc2n1-c1ccc(CCO/C(O)=C2\C(C)=NC(C)=C(C(=O)Nc3ccccn3)C2c2ccccc2Cl)cc1 (stereo unspecified) |  |
| 2000 |  |  | CCCCc1nc2cccnc2n1CCCCCCCO/C(O)=C1\C(C(C)C)=NC(C)=C(C(=O)Nc2cccnc2)C1c1ccccc1Cl (stereo unspecified) |  |
| 200 |  |  | CCCCc1nc2cccnc2n1CCCCCO/C(O)=C1\C(C(C)C)=NC(C)=C(C(=O)Nc2cccnc2)C1c1ccccc1Cl (stereo unspecified) |  |
| 100 |  |  | CCCCc1nc2cccnc2n1CCCCCCO/C(O)=C1\C(C(C)C)=NC(C)=C(C(=O)Nc2cccnc2)C1c1ccccc1Cl (stereo unspecified) |  |
| 600 | 30 | > 100000 | CCCCc1nc2cccnc2n1-c1ccc(CCO/C(O)=C2\C(C(C)C)=NC(C)=C(C(=O)Nc3cccnc3)C2c2ccccc2Cl)cc1 (stereo in doubt) |  |

The remaining lines, values behind:

| Structure (SMILES) | IC50 [1] [nM] | IC50 [2] [nM] | IC50 [3] [nM] | Dose (Rattus norvegicus) [mg/kg] |
| --- | --- | --- | --- | --- |
| CCCCc1nc2cccnc2n1-c1ccc(CCO/C(O)=C2\C(C(C)C)=NC(C)=C(C(=O)Nc3cccnc3)C2c2ccccc2Cl)cc1 (stereo in doubt; 12) | 140 |  |  |  |
| CCCCc1nc2cccnc2n1-c1ccc(CCO/C(O)=C2\C(C(C)C)=NC(C)=C(C(=O)Nc3cccnc3)C2c2ccccc2Cl)cc1 (single isomer, unassigned; (-)) | 130 |  |  | 60 |
| CCCCc1nc2cccnc2n1-c1ccc(CCO/C(O)=C2\C(C(C)C)=NC(C)=C(C(=O)Nc3ccccn3)C2c2ccccc2Cl)cc1 (stereo unspecified) | 120 | > 100000 | > 100000 |  |
| CCCCc1nc2cccnc2n1-c1ccc(CCO/C(O)=C2\C(C(C)C)=NC(C)=C(C(=O)Nc3cccnc3)C2c2ccccc2Cl)cc1 (single isomer, unassigned; (+)) | 5300 |  |  |  |
